Legend:
healthy male volunteers = assay: ANS activity (sympathovagal balance) measured by ANSiscope in healthy male volunteers; assay type: in vivo, human; details: for general and systemic examination, Blood Pressure (Supine), pulse: 350 μg per day, 2 months; for percentage of ANS dysfunction / stage of ANS dysfunction: 1 cap per day of 350 μg, end of 2 months
Procedure: […] ANS activity was measured and printed out in a graph form by the ANSiscope™, manufactured by DyAnsys a US based company. The instrument is US FDA approved patented instrument. This instrument assessed the autonomic function by calculating 500 Heart beats/RR intervals. After assessing this, the instrument will analyze the level of the dysfunction and the degree of autonomic neuropathy. For this reason they have classified autonomic dysfunction in 5 stages, namely Healthy (H), Early (E), Late (L), Advanced (A) and Most Advanced (MA). The percentage calculation values demarcating groups are: −11.5% to 11.5%: healthy group, 13.5% to 20%: early group, 23% to 50.99%: late group, 51% to 100%: advanced group and above falls in Most advance group.
The study parameters assessed were sympathetic and parasympathetic tone, change in blood pressure (orthostatic intolerance, measured at right. brachial artery), pulse (assessed by measuring the pulse at right. radial artery) and physical and general examination. Study was performed on subjects in relaxed supine position without any external stimulation, usually 2 hrs. after breakfast during morning time for 2 consecutive months.
Subjects who have Blood pressure beyond the range of 140/90 (supine) and 100/70 (standing) mm Hg, and Sugar Fasting more than 250 mg % and with any major illness are ruled out of study. All subjects were checked for baseline parameters on 0 day. Vitamin K2-7 (MK-7) in dose of 350 μg was administered on 3rd day after the baseline reading. MK-7 was continued for 2 months. Readings were taken on 3rd day, 15th day, 28st day, 50th day, 56th day and at 62nd day.

rats = assay: Chronic toxicity study, ECG of rats; assay type: in vivo; details: rat ECG
Text: In another study on animal model during chronic toxicity study, it was discovered that MK-7 produces significant changes in ECG of rats. This discovery during basic pharmacology studies on MK-7 was investigated for its effect on Cardio Vascular System. It is during this study the investigator discovered the following findings (FIGS. 5 and 6).
The main parameter which was observed during chronic toxicity studies in rat ECG was the prolongation of QT interval.

ISO injected rats = assay: Isoproterenol (ISO) induced cardiac injury model; assay type: in vivo, rat
Procedure: During the yet another study conducted to assess the cardioprotective effect of vitamin K2-7, inventors of the current invention observe that the vitamin K2-7 improves the cardiac output parameters. Isoproterenol (ISO) induced cardiac injury model was selected for the study. It was observed that ISO induced cardiac output decrease in all the dose levels i.e. at 90 μg/kg, 450 μg/kg and 900 μg/kg. […] This effects was non-linear and was enhanced in 900 μg/kg dose.
Effect of vitamin K2-7 on the left cardiac work has been evaluated in the same study. It was observed that administration of ISO leads to marked decrease in left cardiac work when measured 48 h after ISO injection in comparison to pre ISO level i.e. control.
In the same study it was also observed that vitamin K2-7 enhances the High Density Lipoprotein (HDL) level in all the dose levels studied i.e. at 90 μg/kg, 450 μg/kg and 900 μg/kg. Isoproterenol (ISO) induced cardiac injury model was selected for the study. […] HDL cholesterol level for the treated group increased in comparison to the ISO controlled group. The observed increase was greater with respect to the dose level increased.

CC(C)=CCC/C(C)=C/CC/C(C)=C/CC/C(C)=C/CC/C(C)=C/CC/C(C)=C/CC/C(C)=C/CC1=C(C)C(=O)c2ccccc2C1=O [MK-7]
other parameters (blood pressure, pulse, physical and general examination) (healthy male volunteers; 350 μg for 2 months): remained unaffected | general and systemic examination, Blood Pressure (Supine), pulse (healthy male volunteers; person one): in normal range without any change from base line records | general and systemic examination, Blood Pressure (Supine), pulse (healthy male volunteers; person two): in normal range without any change from base line records | parasympathetic activity (healthy male volunteers; 350 μg, after 2 months of therapy): little effect | sympathetic activity (healthy male volunteers; 350 μg, after 2 months of therapy, initially elevated): marked normalization | percentage of ANS dysfunction (healthy male volunteers; person one, baseline 61%): 31% | stage of ANS dysfunction (healthy male volunteers; person one, baseline 'Advance stage'): Early (13.5% to 20%: early group) | percentage of ANS dysfunction (healthy male volunteers; person two, baseline 25%): 21% | stage of ANS dysfunction (healthy male volunteers; person two, baseline 'Late stage'): Early (13.5% to 20%: early group) | PR interval (rats): not affected to significant extent | QTc change (rats): moderate non-significant shortening | heart rate (rats): no increase | prolongation of QTc (rats): did not cause any prolongation | QT interval (rats; 100, 500, 1000 μg/kg): remained unaffected | QRS interval (rats; 500, 1000 μg/kg): significant shortening | RR interval (rats; 500, 1000 μg/kg): significant prolongation | ISO induced cardiac output decrease (ISO injected rats; 90 μg/kg and 450 μg/kg): reversed | ISO induced cardiac output decrease (ISO injected rats; 900 μg/kg): enhanced | ISO induced left cardiac work decrease, reversal (ISO injected rats; 900 μg/kg vs other treatment groups): higher than other treatment groups | ISO induced left cardiac work decrease (ISO injected rats; 90, 450 and 900 μg/kg, 48 h after ISO injection, vs ISO control): reversed to a great extent | HDL cholesterol level (ISO injected rats; 90, 450 and 900 μg/kg, vs ISO control group): increased | blood sugar (ISO injected rats; within 12 days, 90, 450 and 900 μg/kg): reducing blood sugar
